Reference: US20240277713A1 (Kadmon Corporation, LLC, priority 2022, published 2024)

Tests used:
[1] = tested on: Sprague-Dawley rats; assay: Pilot prenatal developmental toxicity study in Sprague-Dawley rats (Example 1); type: in vivo, rat
From the text: A total of 52 Sprague-Dawley (SD) rats were used in this study.
Observations of the animals included cageside assessments (twice daily), evaluation of clinical signs (daily from GD 6 through 20), body weights (at arrival—GD 2 or 3—and GD 6, 9, 12, 15, 18, and 20), food consumption (GD 6-20), and anatomical pathology including a uterine examination. […] All fetuses were given an external examination.

[2] = Toxicokinetics in pregnant Sprague-Dawley rats (Example 1); type: in vivo, rat; conditions: female, Sprague-Dawley, rat, in vivo, po, 25 mg base/kg/day
[3] = Toxicokinetic evaluation in pregnant rabbits (Example 4); type: in vivo, rabbit; conditions: for Cmax / AUC(0-t): female, New Zealand White, rabbit, plasma, po; for AUC(0-t): read-out: Mean AUC0-24 in plasma of pregnant rabbits
Experimental: The dose levels for the treated groups were 50, 125, 225, mg base/kg/day at a dose volume of 10 mL/kg. The control group received the vehicle in the same manner as the treated groups. […] Individual doses were based on the most recent body weights.
Observations of the animals included clinical signs, body weights, food consumption, and anatomical pathology including a uterine examination. […] All fetuses were given an external, visceral, and skeletal examination.

[4] = tested on: Sprague-Dawley rats; assay: Fertility and early embryonic development to implantation study in Sprague-Dawley rats (Example 5)
From the text: This study design used naive animals of both sexes, incorporated treatment of both sexes, and provided for a recovery period for the treated males based on study outcome.
Male and female Sprague-Dawley (SD) rats were obtained from Charles River Laboratories, Raleigh, North Carolina (approximately 7 to 10 weeks of age). Using a standard, by weight, randomization procedure, 273 male and 273 female animals (weighing 229 to 497 g and 169 to 242 g, respectively, at randomization) were assigned to control, treatment, and toxicokinetic (TK) groups. The dose volume for each group was 10 mL/kg providing a dose concentration in mg/base/mL of one tenth the dose level). (In Table 24, T=Treated; U=Untreated).
Dosing began at 11 weeks of age and 70 days prior to pairing (with untreated females) for the treated males, and 14 days prior to pairing (with untreated males) for the treated females. Dosing of the males continued through the mating and postmating period to euthanasia, while dosing of the females continued through the mating period to GD 7. Females with no evidence of mating were dosed for 7 days following completion of the mating period. Males designated for the recovery phase were dosed for 70 days, and then received a 77 day recovery period.
Animals were observed cageside, for detailed clinical changes, body weights, food consumption, estrous cycle determinations, plasma analysis, sperm analysis, toxicokinetic analysis, and anatomical pathology including uterine and ovarian examinations.
Cageside observations were made at least twice daily.
Detailed clinical observations were made during treatment phases: for males, twice weekly during treatment (4 hours+/−1 hour on dosing days), and for females, daily during treatment (4 hours+/−1 hour on dosing days). During non-treatment phases (males and females), detailed clinical observations occurred weekly and also prior to the scheduled uterine examination (females) on GD 13.
For each endpoint, treatment groups were compared to the control group using the analysis outlined in Table 25. Data for some endpoints, as indicated, were transformed by an arcsin-square root transformation prior to conducting the specified analysis.

[5] = molecular target: T1, OATP1B1 (Homo sapiens, UniProt Q9Y6L6); assay: Transporter systems in vitro: OATP1B1; type: in vitro ADME; conditions: clinically relevant concentrations
T1 sequence (Q9Y6L6 1-691): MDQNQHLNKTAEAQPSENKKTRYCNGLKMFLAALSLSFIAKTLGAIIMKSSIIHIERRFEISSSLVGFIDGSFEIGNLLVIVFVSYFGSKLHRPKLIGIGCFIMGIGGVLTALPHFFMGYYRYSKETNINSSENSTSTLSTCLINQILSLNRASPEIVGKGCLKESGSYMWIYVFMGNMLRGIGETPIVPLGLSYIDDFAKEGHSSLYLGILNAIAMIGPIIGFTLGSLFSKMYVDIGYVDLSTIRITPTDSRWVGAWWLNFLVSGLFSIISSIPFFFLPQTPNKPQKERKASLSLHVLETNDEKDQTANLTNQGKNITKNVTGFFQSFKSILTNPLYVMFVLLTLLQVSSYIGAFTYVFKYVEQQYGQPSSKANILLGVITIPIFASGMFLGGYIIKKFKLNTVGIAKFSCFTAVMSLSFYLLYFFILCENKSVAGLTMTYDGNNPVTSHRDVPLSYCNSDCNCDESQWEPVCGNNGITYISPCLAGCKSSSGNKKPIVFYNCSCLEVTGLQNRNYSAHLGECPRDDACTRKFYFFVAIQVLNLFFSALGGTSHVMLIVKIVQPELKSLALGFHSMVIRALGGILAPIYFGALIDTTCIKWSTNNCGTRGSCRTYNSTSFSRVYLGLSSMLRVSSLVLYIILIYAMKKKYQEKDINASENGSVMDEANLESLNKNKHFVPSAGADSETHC

[6] = tested on: human peripheral blood lymphocytes (HPBL); assay: in vitro chromosome aberration assay; type: cell-based
[7] = 50 mg base/kg, GD 18, belumosudil 50 mg base/kg oral
[8] = 50 mg/kg/day, GD 6, belumosudil 50 mg base/kg oral
[9] = 125 mg/kg/day, GD 6, belumosudil 125 mg base/kg oral
[10] = 125 mg/kg/day, GD 18, belumosudil 125 mg base/kg oral
[11] = 225 mg/kg/day, GD 6, belumosudil 225 mg base/kg oral
[12] = 225 mg/kg/day, GD 18, belumosudil 225 mg base/kg oral

CC(C)NC(=O)COc1cccc(-c2nc(Nc3ccc4[nH]ncc4c3)c3ccccc3n2)c1 [belumosudil, 2-{3-[4-(1H-indazol-5-ylamino)-2-quinazolinyl]phenoxy}-N-(propan-2-yl) acetamide]
Mean post-implantation loss ([1]; 25 mg base/kg/day): 4.00 % per litter
Mean viable litter size ([1]; 25 mg base/kg/day): 13.2
combined mean fetal body weight (males and females) ([1]; 25 mg base/kg/day): 4.37 g
mean fetal body weight (female fetuses) ([1]; 25 mg base/kg/day): 4.19 g
Mean post-implantation loss ([1]; 50 mg base/kg/day): 11.62 % per litter
Mean viable litter size ([1]; 50 mg base/kg/day): 11.6
combined mean fetal body weight (males and females) ([1]; 50 mg base/kg/day): 4.50 g
litter incidence of external fetal malformations ([1]; 50 mg base/kg/day): 40%
mean fetal body weight (female fetuses) ([1]; 50 mg base/kg/day): 4.39 g
Mean post-implantation loss ([1]; 150 mg base/kg/day): 4.51 % per litter
Mean viable litter size ([1]; 150 mg base/kg/day): 12.2
combined mean fetal body weight (males and females) ([1]; 150 mg base/kg/day): 4.22 g
litter incidence of external fetal malformations ([1]; 150 mg base/kg/day): 20%
maternal toxicity ([1]; 150 mg base/kg/day): moderate
mean body weights ([1]; 150 mg base/kg/day): reduced throughout gestation
mean fetal body weight (female fetuses) ([1]; 150 mg base/kg/day): 4.18 g
Mean post-implantation loss ([1]; 300 mg base/kg/day): 24.51 % per litter
Mean viable litter size ([1]; 300 mg base/kg/day): 10.0
clinical signs ([1]; 300 mg base/kg/day): unkempt and/or thin appearance, and hunched posture
combined mean fetal body weight (males and females) ([1]; 300 mg base/kg/day): 3.42 g
litter incidence of external fetal malformations ([1]; 300 mg base/kg/day): 25%
maternal, embryo, and fetal toxicity ([1]; 300 mg base/kg/day): excessive
mean body weight values, body weight gains and food consumption ([1]; 300 mg base/kg/day): adversely affected at every interval
mean fetal body weight (female fetuses) ([1]; 300 mg base/kg/day): 3.34 g
maternal toxicity ([1]; 25 and 50 mg base/kg/day): slight
mean body weight gains and food consumption ([1]; 25 and 50 mg base/kg/day, GD 6-9, 6-18, 6-20): slightly reduced
maternal necropsy findings ([1]; any treated group): No adverse maternal necropsy findings
doses at which fetal malformations were observed (absence of anus and tail, omphalocele, dome shaped head) ([1]; pilot study, pregnant rats, oral): ≥ 50 mg/kg/day
AUC(0-t) ([2]; read-out: maternal AUC0-24): 20400 ng·h/mL
Cmax ([2]; read-out: maternal Cmax): 1800 ng/mL
Cmax [3, 7]: 437 ng/mL
AUC(0-t) [3, 7]: 1590 ng·h/mL
Cmax [3, 8]: 919 ng/mL
AUC(0-t) [3, 8]: 3870 ng·h/mL
Cmax [3, 9]: 3030 ng/mL
AUC(0-t) [3, 9]: 21400 ng·h/mL
Cmax [3, 10]: 1670 ng/mL
AUC(0-t) [3, 10]: 9290 ng·h/mL
Cmax [3, 11]: 4140 ng/mL
AUC(0-t) [3, 11]: 55700 ng·h/mL
Cmax [3, 12]: 2580 ng/mL
AUC(0-t) [3, 12]: 23500 ng·h/mL
accumulation after multiple dosing of belumosudil ([3]; pregnant rabbits): no apparent accumulation
NOAEL for female reproductive performance and fertility ([4]; female rats): 275 mg base/kg/day
dose with adverse findings in female rats (increased pre- or post-implantation loss, decreased number of viable embryos) ([4]; female, Sprague-Dawley, rat, in vivo): 275 mg/kg/day
NOAEL for general toxicity endpoints ([4]; male and female rats): 50 mg base/kg/day
NOAEL for male reproductive performance and fertility ([4]; male rats): 150 mg base/kg/day
dose in male rats with abnormal sperm findings and testes/epididymis organ changes ([4]; male, Sprague-Dawley, rat, in vivo, po): 275 mg/kg/day
reproductive and fertility indices, treated females ([4]; rat, in vivo): unaffected
NOAEL for ovarian and uterine parameters ([4]; treated females): 150 mg base/kg/day
OATP1B1 inhibition [5]: inhibits
genotoxicity, chromosome aberration assay [6]: not genotoxic
